Counter-ions that a name gives are not always drawn.
Key:
KPC tumor = test: Vaccination experiment with dying chemo-treated KPC cells; format: in vivo, mouse
Procedure: The vaccination schedule is highlighted in FIG. 2, panel C. Eight million KPC cells were seeded in a tissue culture dish. After cellular attachment, IRIN (300 µM or OX (500 µM were added for 24 h. Cells were collected and washed before resuspended in 0.8 mL cold PBS. For vaccination, each mouse received subcutaneous (SC) injection of a 100 µL suspension of chemo-treated cells in the right flank. Control animals received SC injection with 0.1 mL PBS. The vaccination was repeated after 7 days. Fourteen days after the 1st injection, the animals received SC injection of normal KPC cells (1 million cells in 0.1 mL PBS) in the contralateral (left) flank. Tumor growth was measured by a digital caliper every 2-3 days, and the tumor volume calculated according to the formula: length × width^2 /2. Animals were sacrificed on day 26 and the tumors were collected, weighed and fixed in 10% formalin, followed by paraffin embedding and sectioning to derive to 4 µm thick slices for IHC analysis. Primary antibodies to CD8 (#14-0808-82) and FoxP3 (#13-5773-82) were purchased from ThermoFisher. IHC staining was performed in the UCLA Translational Pathology Core Laboratory (TPCL). The slides were scanned and images assessed by using Aperio ImageScope software (Leica).

KPC cells [1] = test: Autophagy (LC3B, p62) and PD-L1 expression by IF staining and immunoblotting; format: cell-based, mouse
Procedure: KPC cells were seeded in the µ-Slide 8 well. After cell attachment, the cells were treated by IRIN at 300 µM for 24 h. Control treatments included exposure to PBS, chloroquine (32 µM), rapamycin (100 nM) and IFN-γ (10 ng/ml). Before IF staining, the cells were washed with PBS and fixed with 4% paraformaldehyde at RT for 15 minutes. Cells were treated in 1% BSA (blocking reagent) plus 0.2% triton-X100 in PBS for 30 minutes. Subsequently, the cells were incubated with primary antibody that recognizes LC3B (Cell Signaling #2775, 1:200) or p62/SQSTM1 (Cell Signaling #23214, 1:800) in 1% BSA containing PBS solution at 4° C. overnight. The sample was washed twice in PBS and further stained using an Alexa Fluor® 488 conjugated goat anti-rabbit secondary antibody (Thermo Fisher, A-11008, 1:1000) and 5 µg/mL Hoechst 33342 dye for 1 h. Cell surface staining for PD-L1 assessment was carried out in fixed (4% paraformaldehyde) cells, using a staining process similar to the above protocol. Primary PD-L1 antibody (Abcam, ab213480, 1: 500) and Alexa Fluor® 594 conjugated goat anti-rabbit secondary antibody (Thermo Fisher, A-11012, 1:1000) were used. The cells were visualized using a Leica SP8-MD confocal microscope under the 100x objective lens.
To confirm the confocal staining results for LC3B, p62 and PD-L1, western blotting experiments were performed in KPC cells exposed to IRIN (300 µM) or OX (500 µM) for 24 hr. Another experiment also looked at the dose-dependent effect of IRIN at concentrations of 75, 150, 300 and 600 µM for 24 h. Briefly, ~2×10^5 KPC cells per well were seeded in 6 well-plates. After drug exposure, KPC cells were harvested and treated with cold RIPA lysis buffer (Cell Signaling # 9806S), supplemented with a cocktail of protease and phosphatase inhibitors (Cell Signaling #5872) and incubated on ice for 30 mins. After centrifugation of the lysates at 12,000 rpm for 10 min, protein concentration was quantified by a Bradford assay (Biorad). Equal amounts of protein in the supernatants were loaded onto a 10-20% Tris-glycine SDS-PAGE gel (Invitrogen, Grand Island, NY). The proteins were subsequently transferred to a PVDF membrane. The membrane was blocked with 5% non-fat dry milk/TBST, before incubation with primary and HRP-conjugated secondary antibodies. The primary antibodies included: LC3B (Cell Signaling #2775), p62/SQSTM1 (Cell Signaling #5114), NF-κB p65 (Cell Signaling #8242), Phospho-NF-xB p65 (Cell Signaling #3033) and PD-L1 (Abcam, ab213480). The blots were developed by soaking in ECL substrate (Thermo Fisher Scientific). Densitometric analysis of each protein band on the film was quantified by ImageJ software and normalized to the intensity of a corresponding housekeeping protein.
(§1) The of the IRIN silicasome on lysosomal alkalization was performed at drug concentrations of 75 µM and 300 µM in KPC cells. Empty silicasomes (in which a 500 µg/mL particle dose is representative of an encapsulated IRIN dose of 300 µM) was included as control. The assessment of LC3B, p62 and PD-L1 immunoblotting and IF staining were performed in KPC cells during treatment with the IRIN silicasome or empty silicasomes, as described for the free drug.

PANC-1 cells = test: Confirmative cellular studies (alkalization, autophagy inhibition, PD-L1 induction); format: cell-based, human; conditions: equivalent drug concentration 300 µM, 24 hrs
Procedure: To confirm the effect of IRIN, another PDAC cell line, i.e. PANC-1 cells, were used to study IRIN induced alkalization effect (panel A), autophagy inhibition (panel B) and PD-L1 induction (panel C). The treatments included free IRIN, IRIN silicasome and empty silicasome at equivalent drug concentration of 300 µM for 24 hrs. PBS served as a negative control. Bars: 10 µm. Signal intensity was quantified by Image J. At least three representative images were analyzed for each treatment. Data represents mean ± SD, n = 3. *p<0.05, **p<0.01, ***p<0.001 (1-way ANOVA followed by a Tukey’s test). […] No significant effect was observed when empty silicasome was tested.

KPC cells [2] = test: Lysosomal alkalization, LysoTracker Red DND 99 confocal microscopy; format: cell-based, mouse
Procedure: Approximately 1.5×10^4 KPC cells were seeded in µ-Slide 8 well (ibidi, 80826). To reveal the intracellular distribution of IRIN, attached KPC cells were treated with IRIN (300 µM) for 24 h. Cell membranes were stained using an Alexa Fluor® 594 conjugated WGA dye (Invitrogen™, W11262) at 2 µg/mL for 10 minutes. After washing, the cells were visualized using a Leica SP8-MD confocal microscope under the 100× objective lens. The excitation and emission wavelengths for IRIN were 405 nm and 440~490 nm, respectively^[51]
IRIN-treated KPC cells were washed and replenished with fresh media containing 100 nM DND-99 dye and 5 µg/mL Hoechst 33342 for nuclear staining. The cells were incubated at 37° C. for 0.5 h, followed by washing with phenol red free media. The cells were then visualized using a Leica SP8-MD confocal microscope under the 100× objective lens.
as §1

CCc1c2c(nc3ccc(OC(=O)N4CCC(N5CCCCC5)CC4)cc13)-c1cc3c(c(=O)n1C2)COC(=O)[C@]3(O)CC [IRIN, Irinotecan hydrochloride trihydrate]
growth of tumor on the opposite flank vs PBS control (KPC tumor; KPC cells treated with 300 µM IRIN or 500 µM OX, p <0.05): improved the shrinkage of the tumor on the opposite flank significantly
tumor disappearance at harvesting (KPC tumor; day 26): total tumor disappearance in one IRIN-treated animal
CD8+ staining number (IHC) (KPC tumor; harvested tumors, day 26): no significant increase
CD8+/Treg cells ratio (IHC) (KPC tumor; harvested tumors, day 26): significantly (p <0.01) increased
FoxP3+ expression (IHC) (KPC tumor; harvested tumors, day 26): significantly (p<0.01) decreased
IF staining of LC3B and p62/SQSTM1 complexes (KPC cells [1]; 24 h, IRIN 300 µM, CQ 32 µM, RAP 100 nM): contemporaneous appearance of fluorescent LC3B puncta as well as p62 protein complexes
PD-L1 expression (KPC cells [1]; IRIN 300 µM or OX 500 µM, 24 h): robust cell surface expression of PD-L1
autophagy flux (Western blotting of LC3 and p62) (KPC cells [1]; IRIN 300 µM or OX 500 µM, 24 h): inhibited autophagy flux
phosphorylation of p65 NF-κB subunit (KPC cells [1]; IRIN 300 µM, 24 hrs): induce the phosphorylation of the p65 (p-p65) subunit of NF-κB
ratio of LC3-II vs. LC3-I expression (immunoblotting) (KPC cells [1]; IRIN 75-600 µM, 24 h): dose-dependent increase
lysosomal pH, LC-3B generation and PD-L1 expression (PANC-1 cells): capable of neutralizing lysosomal pH, triggered LC-3B generation and increase PD-L1 expression
time at which a major DND 99 signal drop is observed (KPC cells [2]; 300 µM free IRIN): 1 h
IRIN dose at which a major DND 99 signal drop is discerned (KPC cells [2]; 24 hours): 20 µM
DND 99 relative staining intensity (KPC cells [2]; IRIN 300 µM, 24 h, untreated cells 57.9 ± 1.3, Image J): 13.9 ± 0.9
